The source of these data is article PMC10470053, “Diverse p120RasGAP interactions with doubly phosphorylated partners EphB4, p190RhoGAP, and Dok1” (The Journal of Biological Chemistry, 2023).

The target of data set [1] is T1, RasGAP^232(mut) (R398E/K400E, C-SH2 mutant) (Homo sapiens, UniProt P20936, C236S/C261S/C372S/C402S/K400E/R398E).
T1 construct: (residues 174–444, termed RasGAP^232); hexahistidine (TEV-cleavable) (N, cleaved yes); made in house; host or cells: E. coli Rosetta (DE3)
T1 sequence (P20936 174-444 C236S/C261S/C372S/R398E/K400E/C402S): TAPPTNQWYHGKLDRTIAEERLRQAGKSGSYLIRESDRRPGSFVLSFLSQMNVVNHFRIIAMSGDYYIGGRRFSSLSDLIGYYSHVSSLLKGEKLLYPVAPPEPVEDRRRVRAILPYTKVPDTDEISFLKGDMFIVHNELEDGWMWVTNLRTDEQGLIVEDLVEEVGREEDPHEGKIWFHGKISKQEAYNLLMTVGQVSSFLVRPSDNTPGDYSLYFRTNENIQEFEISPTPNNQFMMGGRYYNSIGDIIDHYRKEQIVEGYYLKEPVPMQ
Description: Isothermal titration calorimetry, C-SH2 mutant RasGAP^232(mut). The data set is classed as binding. The method, then:
One possibility for the difference in binding affinity of EphB4 compared to the other dually phosphorylated peptides is that only a single SH2 domain engages EphB4 at any time. This is supported by the observation that the Kd of binding, 2 μM, is similar to other reported individual SH2 phosphotyrosine interactions (for examples see ([60])) and the evidence of only one inflection point in the doubly phosphorylated EphB4–binding isotherm (Figs. 2B and S3). To assess this hypothesis, we generated two RasGAP^232 mutants that disrupt the phosphotyrosine-binding sites of either the N- or C-SH2 domains and conducted further ITC experiments. […] For the ‘FLVR-unique” C-terminal SH2, we introduced a double mutation R398E/K400E, to abrogate phosphotyrosine binding guided by our previous work ([52]), termed RasGAP^232(mut) (Fig. 2D). We additionally generated a double mutant of both SH2 domains, RasGAP^2(mut)32(mut), and purified each of these proteins (Fig. S2, B–D). […] We then assessed phosphopeptide binding of the single mutant SH2 domains. […] This is similar to the Kd of 2 ± 0.7 μM observed for titration of this peptide into WT RasGAP^232.
To attempt to parse the specificity of RasGAP for the more N- or C-terminal EphB juxtamembrane phosphotyrosines pY590 and pY596, we assessed the affinity of RasGAP^232(mut) for shorter synthesized EphB4 peptides corresponding to either of the two phosphotyrosines (Fig. 1C). […] Alternatively, the C-terminal SH2 may contribute to a second weaker interaction in a tandem interaction. […] This low-affinity interaction represents a primarily single N-SH2-dominant interaction.
Purified RasGAP^232 protein and solubilized peptides were dialyzed overnight against buffer containing 20 mM Tris pH 8, 250 mM NaCl in Slide-A-Lyzer 3 ml 10 kDa molecular weight cut off cassettes (Spectra-Por) and Micro Float-A-Lyzer 0.1 to 0.2 ml, 0.1 to […] molecular weight cut off devices (Spectra-Por), respectively. Protein and peptide concentrations were determined by A280 measured on a Nanodrop Lite (Thermo Fisher Scientific) instrument using extinction coefficients of 45,840 M^−1 cm^−1 for RasGAP^232 (and mutants), 917 M^−1 cm^−1 for the doubly phosphorylated EphB4 peptide, and 458.5 M^−1 cm^−1 for the singly phosphorylated EphB4 peptides as determined by ([74]). Dok1 peptide concentration was confirmed using Amino Acid Analysis performed at UC Davis Molecular Structure Facility. Samples were centrifuged for 10 min at 4 °C and degassed for 7 min using a Degassing Station (TA Instruments). ITC experiments were performed on a Nano ITC (TA Instruments) by loading protein into the 190 μl sample cell and titrating 20 times with 2.5 μl peptide in the titration syringe. Concentrations for sample cell and syringe for each trial are included in Table S1. The data were analyzed in NanoAnalyze software (TA Instrument) using blank (constant) and independent models (https://www.tainstruments.com/itcrun-dscrun-nanoanalyze-software/).

A short description of data set [2]: Reconstitution of lyophilized peptides in water. The data set is classed as physicochemical. To be noted: lyophilized peptide reconstituted in water; spiked with 20 mM Tris pH 8 or 10 mM NaOH to increase solubility. The text has this:
Synthetic peptides were purchased from GenScript and contain N-terminal acetylation and C-terminal amidation for stability. The doubly phosphorylated EphB4 peptide (UniProt ID P54760) used in ITC and SAXS experiments contains residues 586 to 602 (GTKV[pTyr]IDPFT[pTyr]EDPNEA). The singly phosphorylated EphB4 peptides pY590 and pY596 used in ITC experiments contain the residues 586 to 595 (GTKV[pTyr]IDPFT) and residues 592 to 602 (DPFT[pTyr]EDPNE), respectively. The p190RhoGAP peptide (UniProt ID Q9NRY4) used in SAXS experiments contains the residues 1083 to 1111 (SD[pTyr]AEPMDAVVKPRNEEENI[pTyr]SVPH). The Dok1 peptide (UniProt ID Q99704) used in ITC and SAXS experiments contains the residues 291 to 322 (SPPAL[pTyr]AEPLDSLRIAPCPSQDSL[pTyr]SDPLDST). Lyophilized peptides were reconstituted in water, and less soluble peptides (pYpYEphB4 and pY590) were spiked with 20 mM Tris pH 8 or 10 mM NaOH to increase solubility. Concentrations of stock peptides are as follows: pYpY190 stock concentration is 10 mM; pYpYEphB4 stock concentration is 2.5 mM; Dok1 stock concentration is 5.5 mM; pY596 stock concentration is 10 mM; and pY590 stock concentration is 8 mM.

Data set [3] concerns the target p190RhoGAP-A doubly phosphorylated peptide (Homo sapiens) (UniProt Q9NRY4). Description: ITC. Conditions: cited from earlier work.
[4] abbreviates: ITC, average of trials (Table S1).

Where “and” joins values, the source holds several entries; their conditions need not be identical. Identical values can stand only once. Like-named read-outs stand apart in the source and are kept apart here. Square brackets hold non-standard residues; d marks the D form. Peptide text beside a SMILES is read from it. pY = N[C@@H](Cc1ccc(OP(=O)(O)O)cc1)C(=O)O

p120RasGAP SH2-SH3-SH2, sequence (P20936 174-444): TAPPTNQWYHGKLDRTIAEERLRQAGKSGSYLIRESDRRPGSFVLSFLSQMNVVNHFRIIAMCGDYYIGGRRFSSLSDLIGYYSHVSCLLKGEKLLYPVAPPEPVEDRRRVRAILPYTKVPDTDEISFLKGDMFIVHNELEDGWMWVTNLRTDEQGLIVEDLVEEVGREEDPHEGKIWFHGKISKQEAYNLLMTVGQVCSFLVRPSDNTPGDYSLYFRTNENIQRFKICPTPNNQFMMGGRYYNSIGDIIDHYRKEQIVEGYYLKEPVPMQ
p190RhoGAP-A doubly phosphorylated peptide (Homo sapiens), sequence (Q9NRY4 1083-1111): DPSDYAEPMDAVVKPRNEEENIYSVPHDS

For `CC[C@H](C)[C@H](NC(=O)[C@H](Cc1ccc(OP(=O)(O)O)cc1)NC(=O)[C@@H](NC(=O)[C@H](CCCCN)NC(=O)[C@@H](NC(=O)CNC(C)=O)[C@@H](C)O)C(C)C)C(=O)N[C@@H](CC(=O)O)C(=O)N1CCC[C@H]1C(=O)N[C@@H](Cc1ccccc1)C(=O)N[C@H](C(N)=O)[C@@H](C)O` [pY590 EphB4] (Ac-GTKV[pY]IDPFT-NH2), the “weaker binding than the doubly phosphorylated EphB4 peptide” value in data set [1] (ITC Kd, singly versus doubly phosphorylated EphB4 peptide) is “about 10 fold”. Besides, the n in data set [1] (ITC stoichiometry, mean ± SD of trials) was 0.8 ± 0.1. In addition, in data set [1] (setting [4]), the “-T∆S” value is -2.87 kcal/mol, the Ka is 0.07 µM⁻¹ and the “∆G” value is -6.69 kcal/mol. In addition, in data set [1] (ITC, mean ± SD of trials), the ΔS was 40 J/mol∗K and 40 ± 18 J/mol∗K. In addition, in data set [1] (trial 2, ITC), the “-T∆S” value was -2.82 kcal/mol, the Ka was 0.07 µM⁻¹, the “∆G” value was -6.6 kcal/mol and the “∆H” value was -3.78 kcal/mol. In data set [1] (trial 2, ITC), the “∆S” value came to 40.0 J/mol*K. For the same compound, in data set [1] (trial 3, ITC), the “-T∆S” value is -4.16 kcal/mol, the “∆G” value is -6.84 kcal/mol, the “∆H” value is -2.68 kcal/mol and the “∆S” value came out at 58.3 J/mol*K. For the same compound, the Kd in data set [1] (trial 3, ITC, read-out: Ka) was found to be 100 nM. Also, the “solubility on reconstitution, in words” value in data set [2] is “less soluble”.
Take `CC[C@H](C)[C@H](NC(=O)[C@H](Cc1ccc(OP(=O)(O)O)cc1)NC(=O)[C@@H](NC(=O)[C@H](CCCCN)NC(=O)[C@@H](NC(=O)CNC(C)=O)[C@@H](C)O)C(C)C)C(=O)N[C@@H](CC(=O)O)C(=O)N1CCC[C@H]1C(=O)N[C@@H](Cc1ccccc1)C(=O)N[C@H](C(=O)N[C@@H](Cc1ccc(OP(=O)(O)O)cc1)C(=O)N[C@@H](CCC(=O)O)C(=O)N[C@@H](CC(=O)O)C(=O)N1CCC[C@H]1C(=O)N[C@@H](CC(N)=O)C(=O)N[C@@H](CCC(=O)O)C(=O)N[C@@H](C)C(N)=O)[C@@H](C)O` [pYpY EphB4] (Ac-GTKV[pY]IDPFT[pY]EDPNEA-NH2): in data set [1] (ITC, 20 mM Tris pH 8, 250 mM NaCl, independent model, mean ± SD of trials (n = 4 pYpY EphB4, n = 3 pY590, pY596), read-out: Kd), the Kd was found to be 1000 ± 300 nM. Moreover, in data set [2], the “solubility on reconstitution, in words” value is “less soluble”.
With “p120RasGAP SH2-SH3-SH2 (from UniProt P20936)”, in data set [3], the Kd is 10 nM.
